Results published in patent US20130065818A1, “Arylamide Compounds And Compositions And Uses Thereof” (POLYMEDIX, priority 2006, published 2013).
Where two headings read alike, the source gives them in different places.

Key:
[1] = tested on: Streptococcus viridans group; assay: MIC, 25 ocular isolates, broth microdilution (Example 8); assay type: cell-based
Procedure: (§1) Mueller-Hinton Broth supplemented with 2% lysed horse blood in tubes was inoculated with 25 ocular isolates of Streptococcus pneumoniae, Streptococcus viridans group, and Moraxella species (including Moraxella catarrhalis) plus two controls (Staphylococcus aureus and E. coli) and incubated at 37° C. overnight. Additionally, Mueller-Hinton Broth in tubes was inoculated with two controls (Staphylococcus aureus and E. coli) and incubated at 37° C. overnight on a shaker set at 250 rpm.
(§2) On the day of testing, a 640 μg/ml (1280 μg/ml for Serratia marcescens and Pseudomonas aeruginosa) concentration was prepared from a 1% stock solution in 0.01% acetic acid, 0.2% BSA in polypropylene tubes.
(§3) Serial doubling dilutions in 0.01% acetic acid, 0.2% BSA in 96 well polypropylene plates, which are used as reservoirs for the inoculation of the test plates, were carried out to obtain serial dilutions of test agents at 10 times the required test concentrations: 640, 320, 160, 80, 40, 20, 10, 5, 2.5, 1.25, and 0.625 μg/ml (1280, 640, 320, 160, 80, 40, 20, 10, 5, 2.5, and 1.25 μg/ml for Serratia marcescens and Pseudomonas aeruginosa).
(§4) Ten μl of diluted 10×test agents was added to each well of one row of the 96 well polypropylene plates from column 2 to column 12 (column 1 is a control for bacteria alone, with no peptide). Test agent concentrations in columns 2-12 were as follows: 64, 32, 16, 8, 4, 2, 1, 0.5, 0.25, 0.125, and 0.0625 μg/ml (128, 64, 32, 16, 8, 4, 2, 1, 0.5, 0.25, and 0.125 μg/ml for Serratia marcescens and Pseudomonas aeruginosa). The same peptide was in each of the 8 rows. One plate contained dilutions of one test agent and 8 bacterial isolates.
(§5) On the day of testing, the overnight bacterial broth cultures of Streptococcus pneumoniae, Streptococcus viridans and Moraxella species (including Moraxella catarrhalis) plus two controls (Staphylococcus aureus and E. coli) were diluted in 5 ml of trypticase soy broth to yield turbidity equal to a 0.5 McFarland standard. The final inoculum for MIC testing for Streptococcus pneumoniae, Streptococcus viridans and Moraxella species (including Moraxella catarrhalis) was achieved by placing 0.1 ml of the turbidity adjusted sample to 5 ml of Mueller-Hinton broth containing 2% lysed horse red blood cells.
(§6) Ninety μl of the bacterial suspensions was dispensed in each well from column 1 to column 12. Each bacterial isolate was placed in one row of a 96 well polypropylene plate containing the test agents. The plates were placed on shaker at 15 minutes at room temperature, and then incubated at 37° C. overnight. MICs were determined visually as the lowest concentration of drug that inhibits visible bacterial growth.

Streptococcus pneumoniae = assay: as above; assay type: cell-based; conditions: for MIC: Streptococcus pneumoniae
Procedure: as §1, §2, §3, §4, §5, §6

[2] = 25 isolates, Summary of Results, >64 was Replaced with 128

N=C(N)NCCCCC(=O)Nc1cc(C(F)(F)F)cc(NC(=O)c2cc(C(=O)Nc3cc(C(F)(F)F)cc(NC(=O)CCCCNC(=N)N)c3O[C@@H]3CCNC3)ncn2)c1O[C@@H]1CCNC1 [Oligomer 4]
1 µg/mL: MIC ([1]; Streptococcus viridans, isolate 3—E546, read-out: MIC) | MIC ([1]; Streptococcus viridans, isolate 6—E496, read-out: MIC) | MIC ([1]; Streptococcus viridans, isolate 16—E262, read-out: MIC) | MIC ([1]; Streptococcus viridans, isolate 25—E265, read-out: MIC) | MIC50 (Streptococcus pneumoniae; 25 isolates, Row 13) | MIC (Streptococcus pneumoniae; isolate 2—B1380, read-out: MIC) | MIC (Streptococcus pneumoniae; isolate 3—B1378, read-out: MIC) | MIC (Streptococcus pneumoniae; isolate 5—B1373, read-out: MIC) | MIC (Streptococcus pneumoniae; isolate 6—B1367, read-out: MIC) | MIC (Streptococcus pneumoniae; isolate 8—B1353, read-out: MIC) | MIC (Streptococcus pneumoniae; isolate 9—B1351, read-out: MIC) | MIC (Streptococcus pneumoniae; isolate 10—B1339, read-out: MIC)
1 to 32 µg/mL: Range of MICs [1, 2] | Range of MICs ([1]; n=25 per group)
0.5 to 128 µg/mL: Range of MICs (Streptococcus pneumoniae; [2])
2 µg/mL: MIC ([1]; Streptococcus viridans, isolate 1—K1684, read-out: MIC) | MIC ([1]; Streptococcus viridans, isolate 4—E272, read-out: MIC) | MIC ([1]; Streptococcus viridans, isolate 11—E412, read-out: MIC) | MIC90 (Streptococcus pneumoniae; 25 isolates, Row 22) | MIC (Streptococcus pneumoniae; isolate 4—B1377, read-out: MIC) | MIC (Streptococcus pneumoniae; isolate 7—B1355, read-out: MIC) | MIC (Streptococcus pneumoniae; isolate 12—B1335, read-out: MIC)
4 µg/mL: MIC50 ([1]; 25 isolates, Row 13) | MIC ([1]; Streptococcus viridans, 25 ocular isolates, Mueller-Hinton broth with 2% lysed horse red blood cells, read-out: Median MIC) | MIC ([1]; Streptococcus viridans, isolate 2—K1680, read-out: MIC) | MIC ([1]; Streptococcus viridans, isolate 7—E456, read-out: MIC) | MIC ([1]; Streptococcus viridans, isolate 8—E432, read-out: MIC) | MIC ([1]; Streptococcus viridans, isolate 9—E423, read-out: MIC) | MIC ([1]; Streptococcus viridans, isolate 13—E405, read-out: MIC) | MIC ([1]; Streptococcus viridans, isolate 17—E362, read-out: MIC) | MIC ([1]; Streptococcus viridans, isolate 18—E359, read-out: MIC) | MIC ([1]; Streptococcus viridans, isolate 20—E344, read-out: MIC) | MIC ([1]; Streptococcus viridans, isolate 21—E308, read-out: MIC) | MIC ([1]; Streptococcus viridans, isolate 22—E294, read-out: MIC) | MIC ([1]; Streptococcus viridans, isolate 23—E292, read-out: MIC) | MIC ([1]; Streptococcus viridans, isolate 24—E285, read-out: MIC) | MIC ([1]; Streptococcus viridans, n=25 per group, read-out: Median MIC) | MIC50 ([1]; Streptococcus viridans, 25 isolates, Summary of Results, read-out: MIC50) | MIC ([1]; Streptococcus viridans, 25 isolates, Summary of Results, read-out: Median MIC) | MIC50 ([1]; n=25 per group)
16 µg/mL: MIC ([1]; Streptococcus viridans, isolate 5—E506, read-out: MIC) | MIC ([1]; Streptococcus viridans, isolate 15—E396, read-out: MIC)
8 µg/mL: MIC90 ([1]; 25 isolates, Row 22, >64 was Replaced with 128) | MIC ([1]; Streptococcus viridans, isolate 10—E418, read-out: MIC) | MIC ([1]; Streptococcus viridans, isolate 12—E409, read-out: MIC) | MIC ([1]; Streptococcus viridans, isolate 19—E348, read-out: MIC) | MIC90 ([1]; Streptococcus viridans, 25 isolates, Summary of Results, >64 was Replaced with 128, read-out: MIC90) | MIC90 ([1]; n=25 per group)
0.5 µg/mL: MIC (Streptococcus pneumoniae; isolate 11—B1337, read-out: MIC)
≤ 4 µg/mL: MIC (Streptococcus pneumoniae; 25 ocular isolates, Mueller-Hinton broth with 2% lysed horse red blood cells, read-out: Median MIC)
> 64 µg/mL: MIC (Streptococcus pneumoniae; isolate 1—B1386, read-out: MIC)
32 µg/mL: MIC ([1]; Streptococcus viridans, isolate 14—E404, read-out: MIC)
